{"source": "paper PMC11224556", "about": "“Next-generation of BBQ analogues that selectively target breast cancer” (Frontiers in Chemistry, 2024)", "key": {"[1]": {"system": "MDA-MB-468 breast cancer cells", "test": "MTT growth inhibition with co-administered CYP1 (αNF) or SULT1A1 (quercetin) inhibitor", "type": "cell-based, human", "settings": "for fold reduction of growth inhibition (GI50 shift): MDA-MB-468", "experimental": "This analysis confirms that both CYP1 and SULT1A1, activity is needed to induce the growth inhibitory effect of the BBQ analogue.\nFIGURE 5 CYP1 and SULT1A1 inhibition ameliorates the effect of 5. Growth inhibition (72 h, MTT assay) of 5 in the presence of the (A) CYP1 family inhibitor, α-naphthoflavone (αNF, 10 μM) and (B) SULT1A1 inhibitor, quercetin (5 μM), in MDA-MB-468 breast cancer cells. […] The effect of αNF and quercetin at the single concentration of 10µM and 5 µM respectively is shown in red as a single value.\nCells in logarithmic growth were transferred to 96-well plates. Cytotoxicity was determined by plating cells in duplicate in 100 μL medium at a density of 2,500–4,000 cells/well in 96 well plates. On day 0, (24 h after plating) when the cells were in logarithmic growth 100 μL medium with or without the test agent was added to each well. After 72 h drug exposure growth inhibitory effects were evaluated using the MTT (3-[4,5-dimethylthiazol-2-yl]-2,5-diphenyltetrazolium bromide) assay with absorbance read at 540 nm. An eight-point dose response curve was produced, using MS Excel software. From these dose-response curves, the GI50 value was calculated, representing the drug concentration at which cell growth is 50% inhibited based on the difference between the optical density values on day 0 and those at the end of drug exposure ([Bradshaw et al., 2008]; [Zhang et al., 2009]). Each data point was conducted in duplicate and the mean ± S.E.M. calculated from four to five replicates (n = 4 or 5), which were performed on separate occasions and separate cell line passages. Where shown, significant test results were determined using T-test analysis at p < 0.01 and p < 0.05 with a two tail distribution.\nSupp Figure 1. CYP1 and SULT1A1 inhibition ameliorates the effect of 3 and 5. Growth inhibition (72 h, MTT assay) of 3 and 5 (0.1 µM) in the presence of the CYP1 family inhibitor, α-naphthoflavone (αNF, 10 µM) and SULT1A1 inhibitor, quercetin (qu, 5 µM) in (A) MDA-MB-468 breast cancer cells and (B) MCF10A normal breast cells. […]"}, "Du145 (prostate) cells": {"system": "Du145 (prostate) cells", "parameters": "method as in Gilbert et al., 2020", "settings": "MTT, 72 h, ref Gilbert et al., 2020; cited from earlier work"}, "MIA (pancreas) cells": {"system": "MIA (pancreas) cells", "parameters": "method as in Gilbert et al., 2020", "settings": "MTT, 72 h, ref Gilbert et al., 2020; cited from earlier work"}, "[2]": {"system": "MCF-7 breast cancer cells", "parameters": "method as in Gilbert et al., 2020", "settings": "MCF-7, Breast (ER); MTT, 72 h; ref Gilbert et al., 2020; cited from earlier work"}, "[3]": {"system": "ZR-75-1 breast cancer cells", "parameters": "method as in Gilbert et al., 2020", "settings": "ZR-75-1, Breast (ER/PR); MTT, 72 h; ref Gilbert et al., 2020; cited from earlier work"}, "[4]": {"system": "BT474 breast cancer cells", "parameters": "method as in Gilbert et al., 2020", "settings": "BT474, Breast (ER/PR/HER2); MTT, 72 h; ref Gilbert et al., 2020; cited from earlier work"}}}
{"smiles": "O=c1c2cccc3cccc(c32)c2nc3ccccc3n12", "note": "[Compound 5, 7H-Benzo[de]benzo[4,5]imidazo[2,1-a]isoquinolin-7-one]", "values": [{"measurement": "GI50", "setting": "[1]; Homo sapiens, compound alone (no inhibitor), MDA-MB-468, MTT, 72 h", "result": 5, "unit": "nM"}, {"measurement": "fold reduction of growth inhibition (GI50 shift)", "setting": "[1]; with quercetin 5 μM vs alone", "result": 4.6, "unit": "fold"}, {"measurement": "fold reduction of growth inhibition (GI50 shift)", "setting": "[1]; with α-naphthoflavone 10 μM vs alone", "result": 36, "unit": "fold"}]}
{"smiles": "Nc1ccccc1N1C(=O)c2cccc3cccc(c23)C1=O", "note": "[Compound 2, 2-(2-aminophenyl)-1H-benzo[de]isoquinoline-1,3(2H)-dione]", "values": [{"measurement": "GI50", "setting": "Du145 (prostate) cells", "result": "> 50000", "unit": "nM"}, {"measurement": "GI50", "setting": "MIA (pancreas) cells", "result": "> 50000", "unit": "nM"}, {"measurement": "GI50", "setting": "[2]", "result": "700 ± 120", "unit": "nM"}, {"measurement": "GI50", "setting": "[3]", "result": "120 ± 30", "unit": "nM"}, {"measurement": "GI50", "setting": "[4]", "result": "430 ± 70", "unit": "nM"}]}
{"smiles": "O=c1c2cccc3cccc(c4n1Cc1ccccc1N=4)c32", "note": "[Compound 13, 7H,9H-benzo[4,5]isoquinolino[1,2-b]quinazolin-7-one]", "values": [{"measurement": "melting point", "result": "256 to 258", "unit": "°C"}]}
